In patent publication US20240366571A1, “MODULATORS OF SK4 POTASSIUM CHANNEL AND USES THEREOF” (Ramot at Tel-Aviv University Ltd., priority 2022, published 2024):
“Also recorded” adds a separate entry of the source.

Legend:
human SK4 = molecular target: T1, human SK4 (Homo sapiens, UniProt O15554); assay: Whole-cell patch-clamp of WT SK4 K+ currents in transfected CHO cells; assay type: cell-based
T1 construct: expressed in transfected cells; host or cells: CHO cells
Method: Constructs: For CHO cell transfection, the following were cloned: human SK1, rat SK2, human SK3, and rat calmodulin into the pcDNA3 vector, human SK4 into pEGFP-C1 vector, and PIP4,5-kinase into an IRES-dsRed plasmid. The mutations were introduced using the PCR-based QuikChange™ site-directed mutagenesis (Stratagene®) and were verified by full sequencing of the entire plasmid vector.
Cell Culture and Transfection: Chinese hamster ovary (CHO) cells were grown in Dulbecco's modified Eagle's medium supplemented with 2 millimolar (mM) glutamine, 10% fetal calf serum, and antibiotics. In brief, 40,000 cells seeded on poly-L-lysine-coated glass coverslips (13 millimeter (mm) in diameter) in a 24-multiwell plate were transfected with 0.5 microgram (μg) pEGFP-SK4/0.5 μg mutant SK4, 1.2 μg dsRed-PIP4,5-kinase or with 1 μg SK1/SK2/SK3 together with pIRES-CD8 (0.3 μg) as a marker for transfection. Transfection was performed using TransIT-LT1 Transfection Reagent (Mirus Bio) according to the manufacturer's protocol. For electrophysiology, transfected cells were visualized approximately 40 hours after transfection with a Zeiss Axiovert 35 inverted florescence microscope.
Whole-cell patch-clamp recording: Voltage-clamp recordings were performed using the whole-cell configuration of the patch-clamp technique. Signals were amplified using an […] patch-clamp amplifier (Molecular Devices), sampled at 5 kHz and filtered at 2.4 kHz via a four pole Bessel low pass filter. Data were acquired using pClamp™ 10.5 software in conjunction with an Axon™ DigiData® 1440A interface (Molecular Devices). The patch pipettes were pulled from borosilicate glass (Harvard Apparatus) with a resistance of 3-5 megaohms (MΩ). The intracellular pipette solution contained 130 mM KCl, 5 mM EGTA, 10 mM HEPES, pH 7.3 (adjusted with KOH), and CaCl2 calculated for a final concentration of 1 μM free-Ca^2+, by MAXCHELATOR (WEBMAXC STANDARD) software, with sucrose added to adjust osmolarity to 290 mosM. The external solution (310 mosM) contained 140 mM NaCl, 4 mM KCl, 1.8 mM CaCl2, 1.2 mM MgCl2, 11 mM glucose, and 5.5 mM HEPES adjusted with NaOH to pH 7.3. CHO cells were held at −90 millivolt (mV) and SK4 K^+ currents were activated using a voltage ramp protocol from −100 mV to +60 mV for 150 milliseconds. Electrophysiological data analysis was performed using the Clampfit program (pClamp™ 10.5; Molecular Devices).
Some of the compounds were tested by comparing trace of WT SK4 channel currents in the absence and presence of 20 μM of the tested compound.

[1] = test system: rat model of heart failure (HF) post-myocardial infarction (MI); assay: Rat model of heart failure post-myocardial infarction; assay type: in vivo; conditions: vs vehicle
Method: […] Experimental setup and details are described, for example, in Murninkas et al. Am J Physiol-Heart Circul Physiol. (2021), 320, H713-H24.
Following electrode implantation and animal recovery, baseline EP (electrophysiological) measurements were performed followed by random division of the animals to treatment with the exemplary compound vs. treatment with vehicle.
Masson-trichrome staining: staining was performed according to a standard procedure, as described, for example, in N. Foot, Stain Technology (2009), Volume 8, 1933—Issue 3, 101-110.

[2] = 20 mg/kg daily for 2 weeks from one week post-MI

Question: With `CCCCCCCn1c(=O)oc2ccccc21` [BA6b9, 3-heptylbenzo[d]oxazol-2(3H)-one] as the compound, how does the inhibition at 20 µM (human SK4; CHO, 20 μM, whole-cell) read?
Answer: 56%

Question: What about the “SK4 K+ channel modulating activity” value (human SK4; WT SK4 currents in absence and presence of 20 μM compound) of the same compound?
Answer: inhibited; also recorded: Inhibitor

Question: And the AF induction [1, 2]?
Answer: markedly attenuates

Question: What about the “EF (ejection fraction)” value [1, 2] of the same compound?
Answer: does not affect

Question: What about the “total AF duration” value [1, 2] of the same compound?
Answer: markedly attenuates

Question: And the LA fibrosis ([1]; Masson-trichrome staining after post-MI treatment)?
Answer: reduction

Question: What about the “LA smooth muscle actin (SMA)” value ([1]; after post-MI treatment) of the same compound?
Answer: reduction
